# Experimental data as given in PubChem BioAssay AID1963450 (Molecular Pharmacology Branch, DTP, NCI, 2024).
# Test system: 556581-035-R-J1-PDC complex spheroid growth
# Assay: Anticancer human tumor 556581-035-R-J1-PDC patient-derived ovarian carcinoma cell line growth inhibition [Asc]
# Conditions: for IC50: curve of first compound; for viability, T/C: stronger effect = lower value
# How it was run: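 Stromal components (HUVEC and hMSC) are co-assembled with the cancer cells into multicellular spheroids. Drugs are then added singly or paired, at concentrations falling by half-log increments from a clinically achievable maximum, capped at 10 microM without known Cmax.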
# 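Further: spheroids exposed to agents for 7 days before viability read.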
smiles,measurement,setting,value
Cc1nc(N2CCC3(CC2)COC(C)C3N)c(CO)nc1Sc1ccnc(N)c1Cl (configuration not stated) + CCN1C(C(=O)NC23CCC(C(=O)O)(CC2)CC3)C(c2cccc(Cl)c2F)C2(C(=O)Nc3cc(Cl)ccc32)C12CCCCC2,IC50,second compound 0.03 µM,2.24 µM
same,IC50,second compound 0.0949 µM,1.53 µM
same,IC50,second compound 0.3 µM,> 3 µM
same,IC50,second compound 0.949 µM,2.43 µM
same,IC50,second compound 3 µM,0.847 µM
same,"viability, T/C","second compound 0.03 µM, first compound 0.00949 µM",84.7%
same,"viability, T/C","second compound 0.03 µM, first compound 0.03 µM",82.1%
same,"viability, T/C","second compound 0.03 µM, first compound 0.0949 µM",74%
same,"viability, T/C","second compound 0.03 µM, first compound 0.3 µM",62.4%
same,"viability, T/C","second compound 0.03 µM, first compound 0.949 µM",64.3%
same,"viability, T/C","second compound 0.03 µM, first compound 3 µM",45.1%
same,"viability, T/C","second compound 0.0949 µM, first compound 0.00949 µM",88.9%
same,"viability, T/C","second compound 0.0949 µM, first compound 0.03 µM",91.2%
same,"viability, T/C","second compound 0.0949 µM, first compound 0.0949 µM",88.1%
same,"viability, T/C","second compound 0.0949 µM, first compound 0.3 µM",66.5%
same,"viability, T/C","second compound 0.0949 µM, first compound 0.949 µM",60.6%
same,"viability, T/C","second compound 0.0949 µM, first compound 3 µM",39.4%
same,"viability, T/C","second compound 0.3 µM, first compound 0.00949 µM",85.7%
same,"viability, T/C","second compound 0.3 µM, first compound 0.03 µM",95.7%
same,"viability, T/C","second compound 0.3 µM, first compound 0.0949 µM",72.8%
same,"viability, T/C","second compound 0.3 µM, first compound 0.3 µM",73.7%
same,"viability, T/C","second compound 0.3 µM, first compound 0.949 µM",49.5%
same,"viability, T/C","second compound 0.3 µM, first compound 3 µM",58.9%
same,"viability, T/C","second compound 0.949 µM, first compound 0.00949 µM",93.4%
same,"viability, T/C","second compound 0.949 µM, first compound 0.03 µM",82.3%
same,"viability, T/C","second compound 0.949 µM, first compound 0.0949 µM",80.9%
same,"viability, T/C","second compound 0.949 µM, first compound 0.3 µM",68.4%
same,"viability, T/C","second compound 0.949 µM, first compound 0.949 µM",54.7%
same,"viability, T/C","second compound 0.949 µM, first compound 3 µM",49.4%
same,"viability, T/C","second compound 3 µM, first compound 0.00949 µM",88.4%
same,"viability, T/C","second compound 3 µM, first compound 0.03 µM",78.7%
same,"viability, T/C","second compound 3 µM, first compound 0.0949 µM",79.7%
same,"viability, T/C","second compound 3 µM, first compound 0.3 µM",60.8%
same,"viability, T/C","second compound 3 µM, first compound 0.949 µM",45.7%
same,"viability, T/C","second compound 3 µM, first compound 3 µM",50.6%
C#Cc1c(F)ccc2cc(O)cc(-c3ncc4c(N5CC6CCC(C5)N6)nc(OCC56CCCN5CC(F)C6)nc4c3F)c12 (configuration not stated) + CNC(C)C(=O)NC1CN(S(=O)(=O)c2cccc(S(=O)(=O)N3CCC4CCC(C(=O)NC(c5ccccc5)c5ccccc5)N4C(=O)C(NC(=O)C(C)NC)C3)c2)CCC2CCC(C(=O)NC(c3ccccc3)c3ccccc3)N2C1=O,IC50,second compound 0.00316 µM,> 10 µM
same,IC50,second compound 0.01 µM,> 10 µM
same,IC50,second compound 0.0316 µM,> 10 µM
same,IC50,second compound 0.1 µM,> 10 µM
same,IC50,second compound 0.316 µM,6.87 µM
same,IC50,second compound 1 µM,5.29 µM
same,"viability, T/C","second compound 0.00316 µM, first compound 0.0316 µM",101%
same,"viability, T/C","second compound 0.00316 µM, first compound 0.1 µM",103%
same,"viability, T/C","second compound 0.00316 µM, first compound 0.316 µM",103%
same,"viability, T/C","second compound 0.00316 µM, first compound 1 µM",99.6%
same,"viability, T/C","second compound 0.00316 µM, first compound 3.16 µM",98%
same,"viability, T/C","second compound 0.00316 µM, first compound 10 µM",86.8%
same,"viability, T/C","second compound 0.01 µM, first compound 0.0316 µM",105%
same,"viability, T/C","second compound 0.01 µM, first compound 0.1 µM",96.6%
same,"viability, T/C","second compound 0.01 µM, first compound 0.316 µM",100%
same,"viability, T/C","second compound 0.01 µM, first compound 1 µM",107%
same,"viability, T/C","second compound 0.01 µM, first compound 3.16 µM",87.6%
same,"viability, T/C","second compound 0.01 µM, first compound 10 µM",71%
same,"viability, T/C","second compound 0.0316 µM, first compound 0.0316 µM",96.7%
same,"viability, T/C","second compound 0.0316 µM, first compound 0.1 µM",95.9%
same,"viability, T/C","second compound 0.0316 µM, first compound 0.316 µM",88.5%
same,"viability, T/C","second compound 0.0316 µM, first compound 1 µM",87.7%
same,"viability, T/C","second compound 0.0316 µM, first compound 3.16 µM",87%
same,"viability, T/C","second compound 0.0316 µM, first compound 10 µM",60.5%
same,"viability, T/C","second compound 0.1 µM, first compound 0.0316 µM",92%
same,"viability, T/C","second compound 0.1 µM, first compound 0.1 µM",88.8%
same,"viability, T/C","second compound 0.1 µM, first compound 0.316 µM",76.8%
same,"viability, T/C","second compound 0.1 µM, first compound 1 µM",78%
same,"viability, T/C","second compound 0.1 µM, first compound 3.16 µM",77.9%
same,"viability, T/C","second compound 0.1 µM, first compound 10 µM",62%
same,"viability, T/C","second compound 0.316 µM, first compound 0.0316 µM",82.6%
same,"viability, T/C","second compound 0.316 µM, first compound 0.1 µM",65.4%
same,"viability, T/C","second compound 0.316 µM, first compound 0.316 µM",75.3%
same,"viability, T/C","second compound 0.316 µM, first compound 1 µM",66.4%
same,"viability, T/C","second compound 0.316 µM, first compound 3.16 µM",62.8%
same,"viability, T/C","second compound 0.316 µM, first compound 10 µM",44%
same,"viability, T/C","second compound 1 µM, first compound 0.0316 µM",65.2%
same,"viability, T/C","second compound 1 µM, first compound 0.1 µM",64.3%
same,"viability, T/C","second compound 1 µM, first compound 0.316 µM",65.6%
same,"viability, T/C","second compound 1 µM, first compound 1 µM",75.4%
same,"viability, T/C","second compound 1 µM, first compound 3.16 µM",57.9%
same,"viability, T/C","second compound 1 µM, first compound 10 µM",36.3%
